One assay relates to Aβ1-42. Put plainly: Measurement of Aβ1-42 in culture medium of 7W WT APP751 CHO cells by ELISA.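 For Aβ1-42 (% of control): 5 µM test compound but RI-coded compounds at 10 µM for 24 hours.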 The format is cell-based, Chinese hamster. As to conditions: Cricetulus griseus, 5 μM test compound, CHO cells stably transfected with human APP751, culture medium, ELISA, control DMSO.
The test system of the next assay is Aβ1-40. Put plainly: Measurement of Aβ1-40 in culture medium of 7W WT APP751 CHO cells by ELISA.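 Note: 5 µM test compound but RI-coded compounds at 10 µM for 24 hours.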 In kind it is cell-based, Chinese hamster. As to conditions: Cricetulus griseus, 5 μM test compound, CHO cells stably transfected with human APP751, culture medium, ELISA, control DMSO. In general terms: An ELISA detects its analyte on a solid surface through an enzyme-linked reagent.

[1] abbreviates: Table 1, 0 = no detectable amount, read-out: Aβ1-42 (% of control).
Setting [2] is: Table 1, 0 = no detectable amount.

Like-named read-outs stand apart in the source and are kept apart here.

As for `CC(=O)Oc1ccc(C2C(C(=O)OCCOc3ccccc3)=C(C)NC3=C2C(=O)CC(c2ccccc2)C3)cc1` (stereo not shown) [ST017230, 4-{2-methyl-5-oxo-7-phenyl-3-[(2-phenoxyethyl)oxycarbonyl]-4-1,4,6,7,8-pentahydroquinolyl}phenyl acetate], the activity at 5 µM in the assay on Aβ1-42 (setting [1]) was 84.7%; in the assay with Aβ1-40 (setting [2]), 69.1%.
The like results for `CC1=C(C(=O)OCc2ccccc2)C(c2cccs2)C2=C(CCCC2=O)N1` (stereo not shown) [ST017233, phenylmethyl 2-methyl-5-oxo-4-(2-thienyl)-1,4,6,7,8-pentahydroquinoline-3-carboxylate] were, in that order, 27.4% and 60.9%.
The like results for `CCC(C)OC(=O)C1=C(C)NC2=C(C(=O)CC(c3ccc(OC)cc3)C2)C1c1cc2c(cc1[N+](=O)[O-])OCO2` (stereo not shown) [ST017236, methylpropyl 7-(4-methoxyphenyl)-2-methyl-4-(6-nitro(2H-benzo[d]1,3-dioxolan-5-yl))-5-oxo-1,4,6,7,8-pentahydroquinoline-3-carboxylate] were, in that order, 98.1% and 61%.
The like results for `CC1=C(C(=O)OCC2CCCO2)C(c2cccc(Cl)c2)C2=C(CC(C)(C)CC2=O)N1` (stereo not shown) [ST017242, oxolan-2-ylmethyl 4-(3-chlorophenyl)-2,7,7-trimethyl-5-oxo-1,4,6,7,8-pentahydroquinoline-3-carboxylate] were, in that order, 0% and 49.6%.
For `CCOc1cc(C2C(C(=O)OCCSCC)=C(C)NC3=C2C(=O)CC(c2ccc(Cl)cc2)C3)ccc1O` (stereo not shown) [ST017243, 2-ethylthioethyl 7-(4-chlorophenyl)-4-(3-ethoxy-4-hydroxyphenyl)-2-methyl-5-ox o-1,4,6,7,8-pentahydroquinoline-3-carboxylate], the activity at 5 µM turned out to be 15.6% in the assay with Aβ1-42 (setting [1]) and 69.6% in the assay with Aβ1-40 (setting [2]).
The like results for `COc1ccc(C2CC(=O)C3=C(C2)NC(C)=C(C(=O)OCc2ccccc2)C3c2cc(OC)c(OC)c(OC)c2)cc1` (stereo not shown) [ST017244, phenylmethyl 7-(4-methoxyphenyl)-2-methyl-5-oxo-4-(3,4,5-trimethoxyphenyl)-1,4,6,7,8-pentahydroquinoline-3-carboxylate] were, in that order, 24.4% and 65.4%.
The like results for `CCCOC(=O)C1=C(C)NC2=C(C(=O)CC(C)(C)C2)C1c1ccncc1` (stereo not shown) [ST017249, propyl 2,7,7-trimethyl-5-oxo-4-(4-pyridyl)-1,4,6,7,8-pentahydroquinoline-3-carboxylate] were, in that order, 75.1% and 67%.
Turning to `CCCOC(=O)C1=C(C)NC2=C(C(=O)CCC2)C1c1cccnc1` (stereo not shown) [ST017250, propyl 2-methyl-5-oxo-4-(3-pyridyl)-1,4,6,7,8-pentahydroquinoline-3-carboxylate], the results for the activity at 5 µM in the assay with Aβ1-42 (setting [1]) and with Aβ1-40 (setting [2]) were 49.2% and 28.5%, respectively.
For `CCOC(=O)C1=C(C)NC2=C(C(=O)CC(c3ccccc3)C2)C1c1ccccn1` (stereo not shown) [ST017251, ethyl 2-methyl-5-oxo-7-phenyl-4-(2-pyridyl)-1,4,6,7,8-pentahydroquinoline-3-carboxylate], in that order: 34.3% and 90.4%.
The like results for `COCCOC(=O)C1=C(C)NC2=C(C(=O)CC(C)(C)C2)C1c1cccnc1` (stereo not shown) [ST017252, 2-methoxyethyl 2,7,7-trimethyl-5-oxo-4-(3-pyridyl)-1,4,6,7,8-pentahydroquinoline-3-carboxylate] were, in that order, 70.5% and 89.6%.
The like results for `CCCOC(=O)C1=C(C)NC2=C(C(=O)CCC2)C1c1ccc(Br)cc1` (stereo not shown) [ST017259, propyl 4-(4-bromophenyl)-2-methyl-5-oxo-1,4,6,7,8-pentahydroquinoline-3-carboxylate] were, in that order, 87% and 65.5%.
On to `CCCOC(=O)C1=C(C)NC2=C(C(=O)CC(C)(C)C2)C1c1ccccc1` (stereo not shown) [ST017262, propyl 2,7,7-trimethyl-5-oxo-4-phenyl-1,4,6,7,8-pentahydroquinoline-3-carboxylate], for which the activity at 5 µM in the assay with Aβ1-42 (setting [1]) amounted to 86%; in the assay on Aβ1-40 (setting [2]), 60.1%.
For `CCCOC(=O)C1=C(C)NC2=C(C(=O)CC(c3ccccc3)C2)C1c1ccc(CC)cc1` (stereo not shown) [ST017264, propyl 4-(4-ethylphenyl)-2-methyl-5-oxo-7-phenyl-1,4,6,7,8-pentahydroquinoline-3-carboxylate], in that order: 48.2% and 29.7%.
`COc1ccc(C2CC(=O)C3=C(C2)NC(C)=C(C(=O)OCc2ccccc2)C3c2ccncc2)cc1` (stereo not shown) [ST017266, phenylmethyl 7-(4-methoxyphenyl)-2-methyl-5-oxo-4-(4-pyridyl)-1,4,6,7,8-pentahydroquinoline-3-carboxylate]: the activity at 5 µM with Aβ1-42 (setting [1]) amounted to 64.6%; with Aβ1-40 (setting [2]), 65.5%.
In the case of `CCCOC(=O)C1=C(C)NC2=C(C(=O)CC(c3ccccc3)C2)C1c1ccc(Cl)cc1Cl` (stereo not shown) [ST017293, propyl 4-(2,4-dichlorophenyl)-2-methyl-5-oxo-7-phenyl-1,4,6,7,8-pentahydroquinoline-3-carboxylate], the activity at 5 µM in the assay with Aβ1-42 (setting [1]) was 95.2%; in the assay on Aβ1-40 (setting [2]) it was 57.7%.
For `CCOc1ccccc1C1C(C(=O)OC2CCCCC2)=C(C)NC2=C1C(=O)CC(C)(C)C2` (stereo not shown) [ST017304, cyclohexyl 4-(2-ethoxyphenyl)-2,7,7-trimethyl-5-oxo-1,4,6,7,8-pentahydroquinoline-3-carboxylate], in that order: 57.2% and 52%.
The like results for `CCOCCOC(=O)C1=C(C)NC2=C(C(=O)CC(c3ccccc3)C2)C1c1ccccc1F` (stereo not shown) [ST017312, 2-ethoxyethyl 4-(2-fluorophenyl)-2-methyl-5-oxo-7-phenyl-1,4,6,7,8-pentahydroquinoline-3-carboxylate] were, in that order, 71.2% and 15.3%.
The like results for `CCOCCOC(=O)C1=C(C)NC2=C(C(=O)CC(c3ccccc3)C2)C1c1ccc(Br)cc1` (stereo not shown) [ST017313, 2-ethoxyethyl 4-(4-bromophenyl)-2-methyl-5-oxo-7-phenyl-1,4,6,7,8-pentahydroquinoline-3-carboxylate] were, in that order, 85.4% and 44.2%.
On to `CC1=C(C(=O)OCCOc2ccccc2)C(c2cccc(O)c2)C2=C(CC(c3ccccc3)CC2=O)N1` (stereo not shown) [ST017315, 2-phenoxyethyl 4-(3-hydroxyphenyl)-2-methyl-5-oxo-7-phenyl-1,4,6,7,8-pentahydroquinoline-3-carboxylate], for which the activity at 5 µM with Aβ1-42 (setting [1]) turned out to be 53.9%; in the assay on Aβ1-40 (setting [2]), 43.8%.
As to `CCC(C)OC(=O)C1=C(C)NC2=C(C(=O)CC(c3ccccc3)C2)C1c1ccc(Cl)c(Cl)c1` (stereo not shown) [ST017319, methylpropyl 4-(3,4-dichlorophenyl)-2-methyl-5-oxo-7-phenyl-1,4,6,7,8-pentahydroquinoline-3-carboxylate], the activity at 5 µM in the assay with Aβ1-42 (setting [1]) came to 97.5%; with Aβ1-40 (setting [2]), 26.8%.
The like results for `COc1cccc(C2C(C(=O)OC(C)C)=C(C)NC3=C2C(=O)CC(c2ccc(Cl)cc2)C3)c1OC` (stereo not shown) [ST017324, methylethyl 4-(2,3-dimethoxyphenyl)-7-(4-chlorophenyl)-2-methyl-5-oxo-1,4,6,7,8-pentahydroquinoline-3-carboxylate] were, in that order, 99.2% and 30.2%.
The like results for `CC1=C(C(=O)OC(C)C)C(c2cccnc2)C2=C(CC(c3ccc(Cl)cc3)CC2=O)N1` (stereo not shown) [ST017331, methylethyl 7-(4-chlorophenyl)-2-methyl-5-oxo-4-(3-pyridyl)-1,4,6,7,8-pentahydroquinoline-3-carboxylate] were, in that order, 0% and 1.11%.
The like results for `CCCCCOC(=O)C1=C(C)NC2=C(C(=O)CCC2)C1c1cccc(O)c1` (stereo not shown) [ST017336, pentyl 4-(3-hydroxyphenyl)-2-methyl-5-oxo-1,4,6,7,8-pentahydroquinoline-3-carboxylate] were, in that order, 72.7% and 62.9%.
On to `CC1=C(C(=O)OCC(C)C)C(c2ccc(OCc3ccccc3)cc2)C2=C(CCCC2=O)N1` (stereo not shown) [ST017342, 2-methylpropyl 2-methyl-5-oxo-4-[4-(phenylmethoxy)phenyl]-1,4,6,7,8-pentahydroquinoline-3-carboxylate], for which the activity at 5 µM turned out to be 93.5% in the assay with Aβ1-42 (setting [1]) and 28.8% in the assay on Aβ1-40 (setting [2]).
On to `COc1ccc(OC)c(C2C(C#N)=C(C)NC3=C2C(=O)CC(c2ccccc2)C3)c1` (stereo not shown) [ST018638, 4-(2,5-dimethoxyphenyl)-2-methyl-5-oxo-7-phenyl-1,4,6,7,8-pentahydroquinoline-3-carbonitrile], for which the activity at 5 µM in the assay on Aβ1-42 (setting [1]) was determined as 53.8%; with Aβ1-40 (setting [2]), 45.4%.
The like results for `COc1ccc(COC(=O)C2=C(C)NC3=C(C(=O)CCC3)C2c2ccc(Br)cc2)cc1` (stereo not shown) [ST018645, (4-methoxyphenyl)methyl 4-(4-bromophenyl)-2-methyl-5-oxo-1,4,6,7,8-pentahydroquinoline-3-carboxylate] were, in that order, 18% and 7.03%.
The like results for `COc1ccc(COC(=O)C2=C(C)NC3=C(C(=O)CCC3)C2c2ccc(Cl)cc2)cc1` (stereo not shown) [ST018648, (4-methoxyphenyl)methyl 4-(4-chlorophenyl)-2-methyl-5-oxo-1,4,6,7,8-pentahydroquinoline-3-carboxylate] were, in that order, 11% and 7.49%.
`N#CC(C#N)=CC=C1C=CN(C2CCCCC2)C=C1` [ST019328]: the activity at 5 µM with Aβ1-42 (Table 3, read-out: Aβ-42 (% of control)) turned out to be 92.2%; with Aβ1-40 (Table 3), 59%.
Consider `CCOC(=O)C1=C(C)NC2=C(C(=O)CC(C)(C)C2)C1c1ccc(Cl)cc1Cl` (stereo not shown) [ST020008, ethyl 4-(2,4-dichlorophenyl)-2,7,7-trimethyl-5-oxo-1,4,6,7,8-pentahydroquinoline-3-carboxylate], for which the activity at 5 µM was found to be 95.7% in the assay with Aβ1-42 (setting [1]) and 61.7% with Aβ1-40 (setting [2]).

(Values after patent US20100119599A1 (ARCHER PHARMACEUTICALS, INC., priority 2006, published 2010).)
